According to patent US10501518B2 (priority 2013, dated 2019):

Legend:
PTHR = biological target: T1, PTHR (Homo sapiens, UniProt Q03431); experiment: cAMP induction potency, N-terminal modifications and cyclic constraints (Tables 9, 10, 13); type: cell-based
T1 construct: expressed in transfected cells
T1 sequence (Q03431 27-593): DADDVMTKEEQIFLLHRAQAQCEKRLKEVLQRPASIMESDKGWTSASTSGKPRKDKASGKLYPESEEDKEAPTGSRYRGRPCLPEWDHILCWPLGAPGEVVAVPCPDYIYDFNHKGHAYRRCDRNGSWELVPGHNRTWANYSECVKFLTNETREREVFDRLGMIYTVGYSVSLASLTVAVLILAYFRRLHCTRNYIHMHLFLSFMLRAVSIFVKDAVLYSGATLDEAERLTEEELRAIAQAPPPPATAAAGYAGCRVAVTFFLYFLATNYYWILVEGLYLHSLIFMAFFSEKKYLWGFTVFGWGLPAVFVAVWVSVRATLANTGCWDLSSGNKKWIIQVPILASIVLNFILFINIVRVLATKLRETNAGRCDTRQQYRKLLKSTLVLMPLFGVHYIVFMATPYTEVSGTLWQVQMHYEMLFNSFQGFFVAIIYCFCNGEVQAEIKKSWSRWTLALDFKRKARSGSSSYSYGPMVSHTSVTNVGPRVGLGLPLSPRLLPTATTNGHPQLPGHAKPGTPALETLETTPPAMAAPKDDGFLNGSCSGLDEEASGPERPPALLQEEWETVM
Description: For cAMP dose-response assays, monolayers of confluent HEK 293 cells were pre-incubated with buffer containing d-luciferin (0.5 mM) in 96 well plates at room temperature until a stable baseline level of luminescence was established (30 min). Varying concentrations of agonist were then added, and the time course of luminescence response was recorded using a Perkin Elmer plate reader following α/β-peptide addition.

PTH2R/PTH1R = experiment: cAMP response selectivity between PTH2R and PTH1R; type: cell-based; settings: most selective; for cAMP response PTH2R/PTH1R: Table 16; for cAMP response PTH1R/PTH2R: Table 17
Description: Selected analogs containing beta-amino acid substitutions selectively signal through one or the other of the two receptors. Without being bound to any underling biological phenomenon or mechanism, PTHR-2 likely serves an alternative function to PTHR-1 as it is highly expressed in the central nervous system. In contrast, PTHR-1 is highly expressed in bone and kidney, but not in the CNS. The analogs disclosed herein are thus useful as therapeutic compounds that a specific agonists or antagonists of PTHR-1 and PTHR-2.

Row | Substance | Fold PTH (PTHR; Table 10) | Fold PTH (PTHR; Table 9) | cAMP response PTH2R/PTH1R (PTH2R/PTH1R) | cAMP response PTH1R/PTH2R (PTH2R/PTH1R)
1 | AVAEIQXMHQ^hRAKXLNSXRRVZWLRZKLQXVHNX-NH2 [M-FcycD6] | 6.3 | – | – | –
2 | XVSEIQXMHNLGKWLNSMERVEWLRKKLQDVHNF-NH2 [D6_ACPC(1,7)] | – | 22.6 | – | –
3 | XVSEXQXMHNLGKWLNSMERVEWLRKKLQDVHNF-NH2 [D6_ACPC(1,5,7)] | – | 2,045 | – | –
4 | XVUEXQXMHQ^hRAKWLNSMRRVEWLRKKLQDVHNF.-NH2 [M-X1,5,7-D6] | 9.7 | – | – | –
5 | hPTHrP(1-36): parathyroid hormone-related protein fragment, comparator in the PTH2R/PTH1R cAMP response tables | – | – | 0.04 | 27
6 | hTIP(1-39): comparator peptide in the PTH2R/PTH1R cAMP response tables (SLALADDAAFRERARLLAALERRHWLNSYMHKLLVLDAP) | – | – | 165 | 0.01
